We go through 52 substances from patent publication US9776979B2, “EBI2 modulators” (Sanford-Burnham Medical Research Institute, priority 2013, dated 2017).

The IC50 is the concentration that inhibits the measured activity by half.

EBI2, sequence (P32249 whole entry): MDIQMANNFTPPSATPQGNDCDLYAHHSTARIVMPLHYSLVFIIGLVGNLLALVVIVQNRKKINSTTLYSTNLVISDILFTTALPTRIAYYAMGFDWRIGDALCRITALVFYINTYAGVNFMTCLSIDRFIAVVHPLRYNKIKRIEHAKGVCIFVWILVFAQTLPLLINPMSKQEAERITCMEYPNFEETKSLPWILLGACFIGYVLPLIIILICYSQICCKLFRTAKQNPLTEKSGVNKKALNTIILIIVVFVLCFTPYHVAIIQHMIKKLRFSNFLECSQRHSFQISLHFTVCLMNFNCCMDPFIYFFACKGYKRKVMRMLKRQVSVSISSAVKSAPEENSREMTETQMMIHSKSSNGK

The target in the assay is EBI2 (Homo sapiens, UniProt P32249). Briefly: Cell-based luminescent assay (EBI2 modulation). The conditions noted are these: cell-based luminescence; 7a,25-OHC final assay concentration 80 nM; 60 minutes incubation; read-out: IC50. As to the method:
Cell-Based Luminescent Assay
To assess EBI2 modulation, the compounds described herein were assayed in the following cell-based luminescent assay:
1) Plated 600 cells/well in 4 uL of assay media into columns 1-48 of a 1536-well assay plate, using a liquid dispenser.
2) Centrifuged plates at 1000 rpm for 1 minute and covered with lids.
3) Incubated overnight at 37° C., 100% relative humidity, 5% CO2.
1) Centrifuged compound plates containing compounds described herein at 500 rpm for 1 minute.
2) Added compounds into assay plate col 5-48 to final concentration 4-5 uM. Added matching amount of DMSO to positive and negative control wells in columns 1-4.
3) Dispensed 2 ul/well of assay media to columns 1-2 for the positive control wells.
4) Added 2 ul/well of 400 nM 7a,25-OHC (final assay concentration=80 nM) in assay media to columns 3-48 for the negative control and test compound wells.
5) Centrifuged plates at 1000 rpm for 1 minute and re-lid plates.
6) Incubated plates at 37° C., 100% relative humidity, 5% CO2 for 60 minutes.
7) Following 60 minute incubation, delivered 2.5 uL of Detection Reagent solution to each assay plate (Columns 1-48) using a liquid handler.
8) Centrifuged plates at 2000 rpm for 2 minutes and re-lid plates.
9) Incubated plates for 60 minutes at 25 degrees in the dark.
10) Read plates using the Viewlux, Envision or other suitable plate reader using a luminescence detection.
The experimental values were normalized by the difference between values from neutral and stimulator control wells in each plate. Then normalized data was corrected to remove systematic plate patterns due to artifacts such as dispensing tip issues etc.
Turning to “1-(4-{[4-fluoro-2-(trifluoromethyl)phenyl]carbonyl}piperazinyl)-3-[4-(trifluoromethyl)phenyl]prop-2-yn-1-one [Compound C325]”, the IC50 was below 100 nM. With “1-(4-{[4-fluoro-2-(trifluoromethyl)phenyl]carbonyl}piperazinyl)-3-phenylprop-2-yn-1-one [Compound C321]” the figure was below 100 nM; with “1-(4-{[4-fluoro-2-(trifluoromethyl)phenyl]methyl}piperazinyl)-3-(4-methylphenyl)prop-2-yn-1-one [Compound C459]”, 100 to 500 nM; with “1-(4-{[4-fluoro-2-(trifluoromethyl)phenyl]methyl}piperazinyl)-3-[4-(trifluoromethyl)phenyl]prop-2-yn-1-one [Compound C432]”, 100 to 500 nM. Consider “1-[4-(diphenylmethyl)piperazinyl]-3-(4-bromo-2-fluorophenyl)prop-2-yn-1-one [Compound C107]”, for which the IC50 was below 100 nM. Take “1-[4-(diphenylmethyl)piperazinyl]-3-(4-bromophenyl)prop-2-yn-1-one [Compound C50]”: the IC50 is below 100 nM. Consider “1-[4-(diphenylmethyl)piperazinyl]-3-[2-(trifluoromethyl)phenyl]prop-2-yn-1-one [Compound C443]”, for which the IC50 is 100 to 500 nM. With “1-{4-[(4-bromophenyl)carbonyl]piperazinyl}-3-(4-chlorophenyl)prop-2-yn-1-one [Compound C19]” the figure was below 100 nM; with “1-{4-[(4-bromophenyl)methyl]piperazinyl}-3-(4-chlorophenyl)prop-2-yn-1-one [Compound C383]”, below 100 nM; with “1-{4-[(4-fluorophenyl)carbonyl]piperazinyl}-3-[2-(trifluoromethyl)phenyl]prop-2-yn-1-one [Compound C393]”, below 100 nM. Then “1-{4-[(4-fluorophenyl)methyl]piperazinyl}-3-[2-(trifluoromethyl)phenyl]prop-2-yn-1-one [Compound C438]”, with 100 to 500 nM. With “1-{4-[(4-methoxyphenyl)carbonyl]piperazinyl}-3-[2-(trifluoromethyl)phenyl]prop-2-yn-1-one [Compound C373]”, the IC50 is below 100 nM.

“1-{4-[(4-methoxyphenyl)methyl]piperazinyl}-3-[4-(trifluoromethyl)phenyl]prop-2-yn-1-one [Compound C352]”: the IC50 was below 100 nM. Then “3-(2,3-dichlorophenyl)-1-[4-(diphenylmethyl)piperazinyl]prop-2-yn-1-one [Compound C25]”, with below 100 nM. On to “3-(2,3-dichlorophenyl)-1-{4-[(4-chlorophenyl)carbonyl]piperazinyl}prop-2-yn-1-one [Compound C30]”, for which the 50% inhibitory concentration (IC50) is below 100 nM. Consider “3-(2,3-dichlorophenyl)-1-{4-[(4-chlorophenyl)methyl]piperazinyl}prop-2-yn-1-one [Compound C275]”, for which the IC50 is below 100 nM. In the case of “3-(2,4-difluorophenyl)-1-{4-[(4-fluorophenyl)carbonyl]piperazinyl}prop-2-yn-1-one [Compound C424]”, the IC50 is 100 to 500 nM. For the substance “3-(3,4-dichlorophenyl)-1-[4-(diphenylmethyl)piperazinyl]prop-2-yn-1-one [Compound C77]”, the IC50 was below 100 nM. As to “3-(3,4-dichlorophenyl)-1-{4-[(4-chlorophenyl)carbonyl]piperazinyl}prop-2-yn-1-one [Compound C51]”, the IC50 was below 100 nM. “3-(3,4-dichlorophenyl)-1-{4-[(4-chlorophenyl)methyl]piperazinyl}prop-2-yn-1-one [Compound C291]”: the IC50 lay within 100 to 500 nM. Then “3-(3,4-dichlorophenyl)-1-{4-[(4-fluorophenyl)carbonyl]piperazinyl}prop-2-yn-1-one [Compound C93]”, with below 100 nM; and “3-(3,5-difluorophenyl)-1-(4-{[4-(trifluoromethyl)phenyl]carbonyl}piperazinyl)prop-2-yn-1-one [Compound C398]”, with 100 to 500 nM; and “3-(3,5-difluorophenyl)-1-(4-{[4-fluoro-2-(trifluoromethyl)phenyl]methyl}piperazinyl)prop-2-yn-1-one [Compound C422]”, with 100 to 500 nM. In the case of “3-(3,5-difluorophenyl)-1-[4-(diphenylmethyl)piperazinyl]prop-2-yn-1-one [Compound C419]”, the IC50 is 100 to 500 nM.

With “3-(3,5-difluorophenyl)-1-{4-[(4-fluorophenyl)carbonyl]piperazinyl}prop-2-yn-1-one [Compound C410]”, the IC50 is 100 to 500 nM. For “3-(3,5-difluorophenyl)-1-{4-[(4-methoxyphenyl)carbonyl]piperazinyl}prop-2-yn-1-one [Compound C467]”, the IC50 is 100 to 500 nM. Then “3-(4-bromophenyl)-1-{4-[(4-bromophenyl)methyl]piperazinyl}prop-2-yn-1-one [Compound C364]”, with below 100 nM; and “3-(4-bromophenyl)-1-{4-[(4-chlorophenyl)carbonyl]piperazinyl}prop-2-yn-1-one [Compound C55]”, with below 100 nM; and “3-(4-bromophenyl)-1-{4-[(4-chlorophenyl)methyl]piperazinyl}prop-2-yn-1-one [Compound C342]”, with below 100 nM. “3-(4-fluorophenyl)-1-{4-[(4-fluorophenyl)methyl]piperazinyl}prop-2-yn-1-one [Compound C446]”: the IC50 lay in the range of 100 to 500 nM.

Take “3-(4-methylphenyl)-1-(4-{[4-(trifluoromethyl)phenyl]methyl}piperazinyl)prop-2-yn-1-one [Compound C346]”: the IC50 was below 100 nM. With “3-[4-(trifluoromethyl)phenyl]-1-(4-{[4-(trifluoromethyl)phenyl]methyl}piperazinyl)prop-2-yn-1-one [Compound C411]” the figure was 100 to 500 nM; with “4,6-dichloroindol-2-yl 4-(diphenylmethyl)piperazinyl ketone [Compound C250]”, below 100 nM.

For the substance “4-(diphenylmethyl)piperazinyl 1-methylindol-5-yl ketone [Compound C433]”, the concentration for half-maximal inhibition (IC50) was 100 to 500 nM. On to “4-(diphenylmethyl)piperazinyl 2-naphthyl ketone [Compound C101]”, for which the IC50 was below 100 nM.

“4-(diphenylmethyl)piperazinyl 5-bromobenzo[b]thiophen-2-yl ketone [Compound C207]”: the IC50 is below 100 nM. Regarding “4-(diphenylmethyl)piperazinyl 5-bromoindol-2-yl ketone [Compound C43]”, the IC50 is below 100 nM. Take “4-(diphenylmethyl)piperazinyl 5-chlorobenzo[b]thiophen-2-yl ketone [Compound C36]”: the half-inhibitory concentration (IC50) was below 100 nM. On to “4-(diphenylmethyl)piperazinyl 5-hydroxyindol-2-yl ketone [Compound C348]”, for which the IC50 is below 100 nM. For the substance “4-(diphenylmethyl)piperazinyl 6-bromoindol-2-yl ketone [Compound C108]”, the concentration for half-maximal inhibition (IC50) was below 100 nM.

“4-(diphenylmethyl)piperazinyl 6-fluoro(3-quinolyl) ketone [Compound C227]”: the IC50 was below 100 nM.

With “4-(diphenylmethyl)piperazinyl 8-fluoro(3-quinolyl) ketone [Compound C386]”, the IC50 was below 100 nM. Then “4-(diphenylmethyl)piperazinyl indol-6-yl ketone [Compound C370]”, with below 100 nM; and “4-(diphenylmethyl)piperazinyl pyrrolo[2,3-c]pyridin-2-yl ketone [Compound C431]”, with 100 to 500 nM; and “4-[(2,4-difluorophenyl)methyl]piperazinyl 5-(trifluoromethyl)indol-2-yl ketone [Compound C412]”, with 100 to 500 nM. “4-[(3,5-dimethylphenyl)methyl]piperazinyl 5-methylindol-2-yl ketone [Compound C359]”: the IC50 fell in the range of 100 to 500 nM. In the case of “4-[(4-bromophenyl)sulfonyl]piperazinyl 5-chloroindol-2-yl ketone [Compound C333]”, the IC50 was below 100 nM. As to “4-[(4-bromophenyl)sulfonyl]piperazinyl 5-methylindol-2-yl ketone [Compound C143]”, the IC50 is below 100 nM. Then “4-[(4-chlorophenyl)carbonyl]piperazinyl 5-(trifluoromethyl)indol-2-yl ketone [Compound C64]”, with below 100 nM. With “4-[(4-chlorophenyl)methyl]piperazinyl 2-(trifluoromethyl)benzimidazol-5-yl ketone [Compound C170]” the figure was 500 to 5000 nM; with “4-bromophenyl 4-{[4-(methylethyl)phenyl]methyl}piperazinyl ketone [Compound C176]”, 500 to 5000 nM; with “4-{3-[4-(diphenylmethyl)piperazinyl]-3-oxoprop-1-ynyl}benzenecarbonitrile [Compound C326]”, below 100 nM.
